Assay results reported in US6995140B1, “Peptides and polypeptides useful for regenerating the nervous system” (NUCLEICA, priority 1997, dated 2006).
Where no end group is shown, it is not given here.

Columns and labels:
[1] = tested on: cortical neuronal cells; test: Dissociated cell cultures of cerebral hemispheres of 8-day old chicken embryos (cortical neurons); assay type: cell-based; settings: for overall effect on cortical neuron cultures (aggregation, adhesion, neuritic growth): in comparison with peptide SEQ ID NO: 8; for adherent cells carrying neurites relative to controls (controls 24.4%): 4 days of culture
Experimental: Dissociated Cell Cultures of Cerebral Hemispheres of 8-Day Old Chicken Embryos
The neuronal cultures are obtained from 8-day old chicken embryos. The cerebral hemispheres, after removing the meninges, are cut into small pieces and enzymatically dissociated with 0.25% of trypsin in a PBS saline buffer free of calcium and of magnesium for 15 minutes at 37° C.
The cells are centrifuged at 200 g for 5 minutes in DMEM medium with 20% FCS for the trypsin inactivation. The cells are then filtered on nylon membrane (pore size: 48 microns) and collected in a chemically defined medium free of serum containing a 1/1 mixture of DMEM and Ham's F12 medium supplemented with glutamine (4 mM), glucose (33 mM), penicillin G (50 U/ml), streptomycin sulfate (50 μg/ml) and an N2 supplement of Bottenstein and Sato (1979): putrescine (100 μM), sodium selenite (30 nM), human transferrin (50 μg/ml), progesterone (20 nM), insulin (5 μg/ml) and β-estradiol (1 pM). All the N2 supplements were bought from Sigma.
The cells are plated at a density of 7.5×10^4 cells/cm^2 on 24-well plastic plates. For some experiments, the plastic plates are coated either with fibronectin (24 μg/ml) or with thrombospondin (20 μg/ml). The cultures are incubated at 37° C. and under air containing 10% CO2. The medium is not changed during the experiment. These cultures consist of nearly 95% of neurons.
Moreover, the effect of the peptides according to the present invention SEQ ID NO: 8 and NO: 11 on cultures at low density was studied.

[2] = tested on: spinal cord neurons; test: Cell cultures of spinal neurons; assay type: cell-based, chicken; settings: compared with controls
Experimental: Cell Cultures of Spinal Neurons
The spinal cords of 6-day old chicken embryos are dissected, freed of their meningeal membrane and cut into small pieces in a phosphate buffer (PBS) free of calcium and of magnesium. After incubation with 0.25% trypsin for 10 minutes at 37° C., the tissue is centrifuged at 200 g for 4 minutes in a growth medium containing 20% fetal calf serum in order to stop the trypsinization. The cells are then dissociated by repeated trituration using a Pasteur pipette and resuspended in a chemically defined medium free of serum as above.
The cells are plated at a density of 7.5×10^4 cells/cm^2 on 24-well plastic culture plates. The cultures are incubated at 37° C. and under air containing 10% CO2. The medium is not changed during the experiments and it has already been shown that this type of cell population contained more than 93% of neurons.

[3] = tested on: NIB104 neuroblastoma cells; test: Culture of cells derived from the NIB104 neuroblastoma; assay type: cell-based
Experimental: The cells derived from the NIB104 neuroblastoma were cultured in 24-well plastic plates previously coated with a film of poly-L-lysine, under conditions similar to those for the primary cultures.

[4] = Solubility of the peptide; assay type: physicochemical; settings: basic aqueous medium
[5] = low density culture, morphometric analysis
[6] = morphometric analysis, plastic, versus control
[7] = plates coated with thrombospondin and fibronectin, compared with the controls

Row | Substance | overall effect on cortical neuron cultures (aggregation, adhesion, neuritic growth) [1] | adherent cells carrying neurites relative to controls (controls 24.4%) ([1]; low density culture) | number of neurites per cell [1, 5] | neuritic growth and fasciculation of the neurites [2] | number of synaptic contacts between the neurites [2] | distribution (aggregation) of the neurons ([2]; in vitro) | appearance (phenotype) of the cells ([3]; in the presence of the peptide) | neuritic growth ([3]; increasing concentrations of peptide in the culture medium, morphometric analysis) | number of NIB104 neuroblastoma cells ([3]; versus control cultures) | morphology of the neuronal culture ([1]; after 5 days of culture, plastic substrate coated with the peptide) | increase in the number of neuronal aggregates ([1]; between control culture and culture treated with the peptide) | length of the neurites [1, 5] | length of the neurites per aggregate [1, 6] | number of neurites per aggregate [1, 6] | length of the neurites per aggregate [1, 7] | number of neurites per aggregate [1, 7] | adhesion of the cells to the substrate ([1]; substrate coated with the peptide, 5 days of culture, versus control without peptide) | solubility [4]
1 | R-K-A-R- (RKAR) [peptide SEQ ID NO: 13, peptide for comparison, reference compound] | no representative result |  |  |  |  |  |  |  |  |  |  |  |  |  |  |  |  | 
2 | W-G-P-C-S-V-S-C-G- (WGPCSVSCG) [peptide SEQ ID NO: 11, second peptide according to the invention] | lower but, nevertheless, significant results | 2.5 times | not |  |  |  |  |  |  |  |  |  |  |  |  |  |  | 
3 | WSGWSSCSRSCG (cysteine pairing not given here) [peptide SEQ ID NO: 8] |  | 2 times | significant increase | prominent neuritic growths forming a network without fasciculation of the neurites | increase in the number of synaptic contacts | remain distributed for at least one week | acquire a characteristic neuronal phenotype | gradually increases | considerably less numerous | aggregate and are essentially connected by bundles of long and thick neurites | 9.3% | significant increase | significant increase | significant increase | significantly increased | significantly increased | adhere well to the substrate | soluble in basic aqueous medium
